Patent US9708336B2, “Metallo-beta-lactamase inhibitors” (priority 2014, dated 2017)
Where two headings read alike, the source gives them in different places.

Tests used:
[1] = tested on: Klebsiella pneumoniae expressing VIM-1 (IHMA599644); assay: Antibiotic potentiation activity: synergistic concentration (MITC95) with imipenem, OD600 growth; format: cell-based; details: for Klebsiella pneumoniae expressing VIM-1 (IHMA 599644) MITC95: concentration giving 95% inhibition of bacterial growth; for Klebsiella pneumoniae MITC95: Klebsiella pneumoniae expressing VIM-1 (IHMA599644), 95% growth inhibition
Procedure, shortened: (§1)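 Compound activity is tested with and without imipenem, which is present at 4 μg/ml (or 1 μg/ml) in the well. Bacteria in 1.1× CAMHB are incubated 22–24 h at 35 °C; absorbance gives the growth endpoint.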

[2] = tested on: Escherichia coli expressing NDM-1 (CLB30005); assay: as above; format: cell-based; details: for Escherichia coli expressing NDM-1 (CLB 30005) MITC95: concentration giving 95% inhibition of bacterial growth; for Escherichia coli MITC95: Escherichia coli expressing NDM-1 (CLB30005), 95% growth inhibition
Procedure, shortened: as §1

[3] = tested on: Serratia marcescens expressing IMP-1 (CL5741); assay: as above; format: cell-based; details: for Serratia marcescens expressing IMP-1 (CL5741) MITC95: concentration giving 95% inhibition of bacterial growth; for Serratia marcescens MITC95: Serratia marcescens expressing IMP-1 (CL5741), 95% growth inhibition
Procedure, shortened: as §1

[4] = biological target: VIM-1 (Pseudomonas aeruginosa (strain ATCC 15692 / DSM 22644 / CIP 104116 / JCM 14847 / LMG 12228 / 1C / PRS 101 / PAO1), UniProt A0A0F7KYQ8); assay: Enzyme activity: determination of IC50, fluorescence assay with CCF2-FA substrate (VIM-1); format: biochemical; details: read-out: VIM-1 IC50
[5] = biological target: IMP-1 (Serratia marcescens, UniProt P52699); assay: biochemical; format: biochemical; details: read-out: IMP-1 IC50
Sequence of IMP-1 (P52699 whole entry, looked up): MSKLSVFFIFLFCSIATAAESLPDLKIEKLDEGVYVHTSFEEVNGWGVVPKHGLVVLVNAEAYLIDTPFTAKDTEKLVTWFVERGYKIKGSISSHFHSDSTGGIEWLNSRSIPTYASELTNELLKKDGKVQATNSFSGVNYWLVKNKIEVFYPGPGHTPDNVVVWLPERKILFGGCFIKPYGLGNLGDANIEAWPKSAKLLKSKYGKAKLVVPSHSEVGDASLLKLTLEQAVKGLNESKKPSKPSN

[6] = biological target: NDM-1 (Klebsiella pneumoniae, UniProt C7C422); assay: biochemical; format: biochemical; details: read-out: NDM-1 IC50
Sequence of NDM-1 (C7C422 whole entry, looked up, species assumed): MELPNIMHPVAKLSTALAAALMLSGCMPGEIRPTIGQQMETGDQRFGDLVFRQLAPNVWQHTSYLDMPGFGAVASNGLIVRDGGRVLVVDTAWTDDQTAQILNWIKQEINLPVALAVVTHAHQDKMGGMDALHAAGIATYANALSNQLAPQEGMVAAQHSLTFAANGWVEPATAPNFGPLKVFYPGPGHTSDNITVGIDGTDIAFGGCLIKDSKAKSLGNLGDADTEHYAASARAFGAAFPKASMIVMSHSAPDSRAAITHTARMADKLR

[7] = fluorescence assay with CCF2-FA substrate
[8] = VIM-1 enzyme, CCF2-FA fluorescence assay
[9] = IMP-1 enzyme, CCF2-FA fluorescence assay
[10] = NDM-1 enzyme, CCF2-FA fluorescence assay

Row | SMILES | Klebsiella pneumoniae expressing VIM-1 (IHMA 599644) MITC95 [1] | Escherichia coli expressing NDM-1 (CLB 30005) MITC95 [2] | Serratia marcescens expressing IMP-1 (CL5741) MITC95 [3] | IC50 [4, 7] | IC50 [5, 7] | IC50 [6, 7] | Klebsiella pneumoniae MITC95 [1] | Escherichia coli MITC95 [2] | Serratia marcescens MITC95 [3] | IC50 [4, 8] | IC50 [5, 9] | IC50 [6, 10]
1 | NS(=O)(=O)c1cccc(-c2ccc(C(=O)N3CCC(O)CC3)cc2)c1-c1nn[nH]n1 [Example 52, 4′-[(4-hydroxypiperidin-1-yl)carbonyl]-2-(2H-tetrazol-5-yl)biphenyl-3-sulfonamide] | 100 µM | 1.563 µM | 6.25 µM | 0.0966 µM | 0.0179 µM | 0.00171 µM | – | – | – | – | – | –
2 | Cc1ccc(-c2cc(-c3ccc(C(N)=O)cc3)cc(S(N)(=O)=O)c2-c2nn[nH]n2)cc1 [Example 296, 4″-methyl-5′-sulfamoyl-4′-(2H-tetrazol-5-yl)-[1,1′:3′,1″-terphenyl]-4-carboxamide] | – | – | – | – | – | – | >200 µM | 1.953 µM | 3.125 µM | 0.127 µM | 0.0548 µM | 0.000637 µM
3 | COC(=O)N1CCC(c2ccc(-c3cccc(S(N)(=O)=O)c3-c3nnn[nH]3)cc2)CC1 [Example 28, methyl 4-[3′-sulfamoyl-2′-(1H-tetrazol-5-yl)biphenyl-4-yl]piperidine-1-carboxylate] | >200 µM | 12.5 µM | 12.5 µM | 0.0267 µM | 0.00374 µM | 0.000972 µM | – | – | – | – | – | –
4 | C[C@H]1NC(=O)O[C@H]1c1ccc(-c2cccc(S(N)(=O)=O)c2-c2nnn[nH]2)cc1 [Example 23, 4′-[(4R,5S)-4-methyl-2-oxo-1,3-oxazolidin-5-yl]-2-(1H-tetrazol-5-yl)biphenyl-3-sulfonamide] | 50 µM | 2.344 µM | 2.344 µM | 0.00976 µM | 0.00436 µM | 0.000637 µM | – | – | – | – | – | –
5 | COc1ncc(-c2cccc(S(N)(=O)=O)c2-c2nn[nH]n2)cn1 [Example 91, 3-(2-methoxypyrimidin-5-yl)-2-(2H-tetrazol-5-yl)benzenesulfonamide] | 75 µM | 0.7813 µM | 50 µM | 0.18 µM | 0.83 µM | 0.0275 µM | – | – | – | – | – | –
6 | Cc1ccc(-c2cc(-c3cccnc3)cc(S(N)(=O)=O)c2-c2nn[nH]n2)cc1 [Example 293, 4′-methyl-5-(pyridin-3-yl)-2-(2H-tetrazol-5-yl)-[1,1′-biphenyl]-3-sulfonamide] | – | – | – | – | – | – | >200 µM | 1.953 µM | 9.375 µM | 0.232 µM | 0.0865 µM | 0.00102 µM
7 | NS(=O)(=O)c1nccc(-c2ccc(CO)nc2)c1-c1nnn[nH]1 [Example 195, 6-(hydroxymethyl)-3′-(1H-tetrazol-5-yl)-[3,4′-bipyridine]-2′-sulfonamide] | 12.5 µM | 0.3906 µM | 50 µM | 0.291 µM | 2.63 µM | 0.0785 µM | – | – | – | – | – | –
8 | NS(=O)(=O)c1cccc(-c2ccc(S(=O)(=O)NC3CC3)cc2)c1-c1nn[nH]n1 [Example 60, N~4~′-cyclopropyl-2-(2H-tetrazol-5-yl)biphenyl-3,4′-disulfonamide] | 75 µM | 3.906 µM | 4.688 µM | 0.0278 µM | 0.0165 µM | 0.00317 µM | – | – | – | – | – | –
9 | N#Cc1ccc2[nH]c(-c3cccc(S(N)(=O)=O)c3-c3nn[nH]n3)cc2c1 [Example 99, 3-(5-cyano-1H-indol-2-yl)-2-(2H-tetrazol-5-yl)benzenesulfonamide] | >200 µM | 9.375 µM | 28.13 µM | 0.104 µM | 0.208 µM | 0.00698 µM | – | – | – | – | – | –
10 | C[C@@H]1NC(=O)O[C@H]1c1ccc(-c2cccc(S(N)(=O)=O)c2-c2nnn[nH]2)cc1 [Example 29, 4′-[(4S,5S)-4-methyl-2-oxo-1,3-oxazolidin-5-yl]-2-(1H-tetrazol-5-yl)biphenyl-3-sulfonamide] | 200 µM | 3.125 µM | 6.25 µM | 0.0528 µM | 0.0121 µM | 0.00149 µM | – | – | – | – | – | –
11 | NS(=O)(=O)c1cccc(-c2ccc(C(O)C(F)(F)F)cc2)c1-c1nn[nH]n1 (stereo not drawn) [Example 3, 2(2H-tetrazol-5-yl)4′-(2,2,2-trifluoro-1-hydroxyethyl)biphenyl-3-sulfonamide] | 200 µM | 0.7813 µM | 1.563 µM | 0.0399 µM | 0.00892 µM | 0.00149 µM | – | – | – | – | – | –
12 | NS(=O)(=O)c1nccc(-c2ccc(C(=O)NC3CC3)cc2)c1-c1nnn[nH]1 [Example 185, N-Cyclopropyl-4-(2-sulfamoyl-3-(1H-tetrazol-5-yl)pyridin-4-yl)benzamide] | >200 µM | 2.344 µM | 75 µM | 2.02 µM | 1.48 µM | 0.135 µM | – | – | – | – | – | –
13 | Cc1nccn1-c1nc(-c2cccc(S(N)(=O)=O)c2-c2nn[nH]n2)cs1 [Example 102, 3-[2-(2-methyl-1H-imidazol-1-yl)-1,3-thiazol-4-yl]-2-(2H-tetrazol-5-yl)benzenesulfonamide] | >200 µM | 9.375 µM | 53.13 µM | 0.524 µM | 0.174 µM | 0.128 µM | – | – | – | – | – | –
14 | NS(=O)(=O)c1cccc(-c2cnn(Cc3ccccn3)c2)c1-c1nn[nH]n1 [Example 101, 3-[1-(pyridin-2-ylmethyl)-1H-pyrazol-4-yl]-2-(2H-tetrazol-5-yl)benzenesulfonamide] | 125 µM | 3.906 µM | 14.06 µM | 0.111 µM | 0.517 µM | 0.0409 µM | – | – | – | – | – | –
15 | NS(=O)(=O)c1cccc(-c2ccc(N3CCOCC3)nc2)c1-c1nn[nH]n1 [Example 323, 3-(6-morpholinopyridin-3-yl)-2-(2H-tetrazol-5-yl)benzenesulfonamide] | – | – | – | – | – | – | 200 µM | 2.344 µM | 12.5 µM | 0.151 µM | 0.0706 µM | 0.00769 µM
16 | NS(=O)(=O)c1cccc(-c2ccc(C(O)C(F)F)cc2)c1-c1nnn[nH]1 (stereo not drawn) [Example 24, 4′-(2,2-difluoro-1-hydroxyethyl)-2-(1H-tetrazol-5-yl)biphenyl-3-sulfonamide] | 150 µM | 1.563 µM | 3.125 µM | 0.124 µM | 0.0178 µM | 0.00365 µM | – | – | – | – | – | –
17 | CC(c1ccc(-c2cccc(S(N)(=O)=O)c2-c2nn[nH]n2)cc1)N1CCOCC1 (stereo not drawn) [Example 4, 4′-(1-morpholin-4-ylethyl)-2-(2H-tetrazol-5-yl)biphenyl-3-sulfonamide] | >200 µM | 0.7813 µM | 6.25 µM | 0.196 µM | 0.0113 µM | 0.00284 µM | – | – | – | – | – | –
18 | NS(=O)(=O)c1cccc(-c2ccc(N3CCOCC3)cc2)c1-c1nn[nH]n1 [Example 12] | 200 µM | 3.125 µM | 6.25 µM | 0.0957 µM | 0.0418 µM | 0.00347 µM | – | – | – | – | – | –
19 | NS(=O)(=O)c1cccc(-c2ccc(CC3OC(=O)NC3=O)cc2)c1-c1nn[nH]n1 (stereo not drawn) [Example 76, 4′-[(2,4-dioxo-1,3-oxazolidin-5-yl)methyl]-2-(2H-tetrazol-5-yl)biphenyl-3-sulfonamide] | >200 µM | 6.25 µM | 6.25 µM | 0.244 µM | 0.0427 µM | 0.0171 µM | – | – | – | – | – | –
20 | Cc1ccc(-c2cc(-c3cnn(C)c3)cc(S(N)(=O)=O)c2-c2nn[nH]n2)cc1 [Example 291, 4′-methyl-5-(1-methyl-1H-pyrazol-4-yl)-2-(2H-tetrazol-5-yl)-[1,1′-biphenyl]-3-sulfonamide] | – | – | – | – | – | – | >200 µM | 3.906 µM | 4.688 µM | 0.222 µM | 0.0986 µM | 0.00147 µM
